According to the NIST ThermoML archive (doi:10.1016/j.jct.2016.03.026):
Numbers after ± are expanded uncertainties.

Experiment: xn = mol fraction of the nth substance listed
Details: 283.15 K, Fluid (supercritical or subcritical phases), Vibrating tube method, x1 = 0.97

With O=C=O [carbon dioxide] + CO the mass density (16550 kPa) was 963.02 ± 0.8 kg/m3, the mass density (16575 kPa) was 963.18 ± 0.8 kg/m3 and the mass density (16600 kPa) was 963.26 ± 0.8 kg/m3. It also gave a mass density (16625 kPa) of 963.43 ± 0.8 kg/m3, a mass density (16650 kPa) of 963.51 ± 0.8 kg/m3 and a mass density (16675 kPa) of 963.66 ± 0.8 kg/m3. It also gave a mass density (16700 kPa) of 963.77 ± 0.8 kg/m3, a mass density (16725 kPa) of 963.92 ± 0.8 kg/m3 and a mass density (16750 kPa) of 964 ± 0.8 kg/m3. For the same compound, the mass density (16775 kPa) was 964.16 ± 0.8 kg/m3, the mass density (16800 kPa) was 964.28 ± 0.8 kg/m3 and the mass density (16825 kPa) was 964.4 ± 0.8 kg/m3. The mass density (16850 kPa) was 964.49 ± 0.8 kg/m3, the mass density (16875 kPa) was 964.65 ± 0.8 kg/m3 and the mass density (16900 kPa) was 964.79 ± 0.8 kg/m3. It also gave a mass density (16925 kPa) of 964.88 ± 0.8 kg/m3, a mass density (16950 kPa) of 964.99 ± 0.8 kg/m3 and a mass density (16975 kPa) of 965.14 ± 0.8 kg/m3. It also gave a mass density (17000 kPa) of 965.28 ± 0.8 kg/m3, a mass density (17025 kPa) of 965.37 ± 0.8 kg/m3 and a mass density (17050 kPa) of 965.46 ± 0.8 kg/m3. The mass density (17075 kPa) was 965.62 ± 0.8 kg/m3, the mass density (17100 kPa) was 965.75 ± 0.8 kg/m3 and the mass density (17125 kPa) was 965.87 ± 0.8 kg/m3. For the same compound, the mass density (17150 kPa) was 965.97 ± 0.8 kg/m3, the mass density (17175 kPa) was 966.11 ± 0.8 kg/m3 and the mass density (17200 kPa) was 966.25 ± 0.8 kg/m3. For the same compound, the mass density (17225 kPa) was 966.36 ± 0.8 kg/m3, the mass density (17250 kPa) was 966.51 ± 0.8 kg/m3 and the mass density (17275 kPa) was 966.6 ± 0.8 kg/m3. For the same compound, the mass density (17300 kPa) was 966.7 ± 0.8 kg/m3, the mass density (17325 kPa) was 966.85 ± 0.8 kg/m3 and the mass density (17350 kPa) was 966.97 ± 0.8 kg/m3. For the same compound, the mass density (17375 kPa) was 967.09 ± 0.8 kg/m3, the mass density (17400 kPa) was 967.17 ± 0.8 kg/m3 and the mass density (17425 kPa) was 967.31 ± 0.8 kg/m3. For the same compound, the mass density (17450 kPa) was 967.41 ± 0.8 kg/m3, the mass density (17475 kPa) was 967.57 ± 0.8 kg/m3 and the mass density (17500 kPa) was 967.66 ± 0.8 kg/m3. For the same compound, the mass density (17525 kPa) was 967.82 ± 0.8 kg/m3, the mass density (17550 kPa) was 967.9 ± 0.8 kg/m3 and the mass density (17575 kPa) was 968.06 ± 0.8 kg/m3. It also gave a mass density (17600 kPa) of 968.15 ± 0.8 kg/m3, a mass density (17625 kPa) of 968.24 ± 0.8 kg/m3 and a mass density (17650 kPa) of 968.4 ± 0.8 kg/m3. The mass density (17675 kPa) was 968.48 ± 0.8 kg/m3, the mass density (17700 kPa) was 968.64 ± 0.8 kg/m3 and the mass density (17725 kPa) was 968.78 ± 0.8 kg/m3. It also gave a mass density (17750 kPa) of 968.88 ± 0.8 kg/m3, a mass density (17775 kPa) of 968.98 ± 0.8 kg/m3 and a mass density (17800 kPa) of 969.12 ± 0.8 kg/m3. The mass density (17825 kPa) was 969.25 ± 0.8 kg/m3, the mass density (17850 kPa) was 969.37 ± 0.8 kg/m3 and the mass density (17875 kPa) was 969.46 ± 0.8 kg/m3. For the same compound, the mass density (17900 kPa) was 969.6 ± 0.8 kg/m3, the mass density (17925 kPa) was 969.69 ± 0.8 kg/m3 and the mass density (17950 kPa) was 969.8 ± 0.8 kg/m3. It also gave a mass density (17975 kPa) of 969.94 ± 0.8 kg/m3, a mass density (18000 kPa) of 970.08 ± 0.8 kg/m3 and a mass density (18025 kPa) of 970.18 ± 0.8 kg/m3. The mass density (18050 kPa) was 970.31 ± 0.8 kg/m3, the mass density (18075 kPa) was 970.43 ± 0.8 kg/m3 and the mass density (18100 kPa) was 970.52 ± 0.8 kg/m3. It also gave a mass density (18125 kPa) of 970.66 ± 0.8 kg/m3, a mass density (18150 kPa) of 970.8 ± 0.8 kg/m3 and a mass density (18175 kPa) of 970.91 ± 0.8 kg/m3. For the same compound, the mass density (18200 kPa) was 970.99 ± 0.8 kg/m3, the mass density (18225 kPa) was 971.16 ± 0.8 kg/m3 and the mass density (18250 kPa) was 971.25 ± 0.8 kg/m3. The mass density (18275 kPa) was 971.39 ± 0.8 kg/m3, the mass density (18300 kPa) was 971.48 ± 0.8 kg/m3 and the mass density (18325 kPa) was 971.57 ± 0.8 kg/m3. For the same compound, the mass density (18350 kPa) was 971.73 ± 0.8 kg/m3, the mass density (18375 kPa) was 971.85 ± 0.8 kg/m3 and the mass density (18400 kPa) was 971.98 ± 0.8 kg/m3. The mass density (18425 kPa) was 972.05 ± 0.8 kg/m3, the mass density (18450 kPa) was 972.17 ± 0.8 kg/m3 and the mass density (18475 kPa) was 972.3 ± 0.8 kg/m3. For the same compound, the mass density (18500 kPa) was 972.43 ± 0.8 kg/m3, the mass density (18525 kPa) was 972.54 ± 0.8 kg/m3 and the mass density (18550 kPa) was 972.62 ± 0.8 kg/m3. It also gave a mass density (18575 kPa) of 972.76 ± 0.8 kg/m3, a mass density (18600 kPa) of 972.9 ± 0.8 kg/m3 and a mass density (18625 kPa) of 973.03 ± 0.8 kg/m3. For the same compound, the mass density (18650 kPa) was 973.11 ± 0.8 kg/m3, the mass density (18675 kPa) was 973.21 ± 0.8 kg/m3 and the mass density (18700 kPa) was 973.35 ± 0.8 kg/m3. The mass density (18725 kPa) was 973.46 ± 0.8 kg/m3, the mass density (18750 kPa) was 973.6 ± 0.8 kg/m3 and the mass density (18775 kPa) was 973.72 ± 0.8 kg/m3. It also gave a mass density (18800 kPa) of 973.84 ± 0.8 kg/m3, a mass density (18825 kPa) of 973.96 ± 0.8 kg/m3 and a mass density (18850 kPa) of 974.07 ± 0.8 kg/m3. The mass density (18875 kPa) was 974.17 ± 0.8 kg/m3, the mass density (18900 kPa) was 974.28 ± 0.8 kg/m3 and the mass density (18925 kPa) was 974.41 ± 0.8 kg/m3. For the same compound, the mass density (18950 kPa) was 974.55 ± 0.8 kg/m3, the mass density (18975 kPa) was 974.63 ± 0.8 kg/m3 and the mass density (19000 kPa) was 974.74 ± 0.8 kg/m3. For the same compound, the mass density (19025 kPa) was 974.9 ± 0.8 kg/m3, the mass density (19050 kPa) was 974.98 ± 0.8 kg/m3 and the mass density (19075 kPa) was 975.08 ± 0.8 kg/m3. For the same compound, the mass density (19100 kPa) was 975.18 ± 0.8 kg/m3, the mass density (19125 kPa) was 975.31 ± 0.8 kg/m3 and the mass density (19150 kPa) was 975.44 ± 0.8 kg/m3. The mass density (19175 kPa) was 975.52 ± 0.8 kg/m3, the mass density (19200 kPa) was 975.66 ± 0.8 kg/m3 and the mass density (19225 kPa) was 975.76 ± 0.8 kg/m3. For the same compound, the mass density (19250 kPa) was 975.85 ± 0.8 kg/m3, the mass density (19275 kPa) was 976.02 ± 0.8 kg/m3 and the mass density (19300 kPa) was 976.1 ± 0.8 kg/m3. The mass density (19325 kPa) was 976.18 ± 0.8 kg/m3, the mass density (19350 kPa) was 976.34 ± 0.8 kg/m3 and the mass density (19375 kPa) was 976.42 ± 0.8 kg/m3. It also gave a mass density (19400 kPa) of 976.53 ± 0.8 kg/m3, a mass density (19425 kPa) of 976.66 ± 0.8 kg/m3 and a mass density (19450 kPa) of 976.74 ± 0.8 kg/m3. The mass density (19475 kPa) was 976.85 ± 0.8 kg/m3, the mass density (19500 kPa) was 976.99 ± 0.8 kg/m3 and the mass density (19525 kPa) was 977.1 ± 0.8 kg/m3. The mass density (19550 kPa) was 977.22 ± 0.8 kg/m3.
